Experiments:
[1] = maximum amount of iron which can be complexed with galacturonic acid; type: physicochemical
Procedure: 25.5 grams of high-purity galacturonic acid were dissolved in 300 ml of distilled water with the addition of solid sodium carbonate until a pH of 8 to 9 was reached. Separately, 24 grams of anhydrous ferric chloride were dissolved in 300 ml of distilled water and this solution was then added slowly, by dropping funnel, to the aforementioned solution of galacturonic acid, adjusting with solid sodium carbonate as needed to keep the mixture slightly alkaline, e.g. pH 8-9, and keeping the mixture stirred moderately. A beautiful brown-red solution was thus obtained. In order to ascertain the maximum amount of iron which can be complexed with galacturonic acid, a solution of 189.9 grams of anhydrous ferric chloride was dissolved in 1500 ml of distilled water, and this solution was added gradually to the above solution, with good stirring, and always adjusting the alkalinity to a pH of 8-9. […] A light-brown precipitate then appeared which, however, was dissolved again completely in about an hour's time and a perfectly clear, deep brown-red solution again resulted. From the total amounts of galacturonic acid used and ferric chloride solution consumed in the test, it was calculated that one mol weight of galacturonic acid will complex three atom weights of iron. Actually, 2,989 atom-weights of iron were consumed, an amount well within experimental error.

[2] = tested on: humans; details: not without risk of some serious side effects; cited from earlier work
[3] = tested on: rabbits; details: intravenous route; cited from earlier work
[4] = tested on: rats; details: oral ingestion; cited from earlier work
[5] = tested on: anemic rat; assay: curative test: bioavailability of iron / hemoglobin repletion in the anemic rat (cyanomethemoglobin method of Drabkin); type: in vivo, rat (male albino, Wistar-derived stock); details: for improvement in hemoglobin: 0.2 mg iron per day
Excerpt: The "curative" test results can be obtained in an oral administration technique, wherein the test animals are fed a prescribed iron-poor diet and are brought to an anemic condition through a controlled experimental technique. […] This test technique is generally standardized and has been used, with many variations, to determine bioavailability of iron in a variety of hematinics.
Reagent grade ferrous sulfate heptahydrate (Fisher Scientific Co.) was used without further purification at the calculated iron content of 20.1%.
Weanling male albino rats (Wistar-derived stock weighing between 45 and 55 grams) were placed in individual cages (newly galvanized) and provided with food and distilled water, ad libitum. The iron-low diet was that described by Pla and Fritz (J. Assoc. Offic. Anal. Chem. 54, 18 (1971). Weekly determination of hemoglobin content in tail blood was determined by the cyanomethemoglobin method of Drabkin adapted to 0.02 ml samples as recommended by these authors.
18 rats were selected for the test from a larger number to provide three matched groups of six, each having essentially equal initial hemoglobin values.
The solution prepared on Fridays was also dosed on Saturdays and Sundays. The solutions were administered by intragastric intubulation. The Negative Control Group received sham treatment consisting of plain water.
Body weights of all animals were recorded weekly and hemoglobin determinations were repeated after two and four weeks of dosing.

Compound | iron actually consumed per mol weight of galacturonic acid ([1]; pH 8-9) | iron complexed per mol weight of galacturonic acid ([1]; pH 8-9, calculated from amounts consumed) | tolerated oral dosage [2] | LD50 [3] | LD50 [4] | improvement in hemoglobin ([5]; after four weeks of dosing) | improvement in hemoglobin ([5]; after two weeks of dosing) | body weight gain ([5]; as compared to the Example 1 Group, differences were nominal) | efficacy in reversing mild deficiency anemia ([5]; conclusion of the test)
O=C[C@H](O)[C@@H](O)[C@@H](O)[C@H](O)C(=O)O [galacturonic acid] | 2,989 atom-weights of iron | three |  |  |  |  |  |  | 
ferrous sulfate |  |  | about 300 milligrams | 99 milligrams per kilogram of body weight | 5,000 milligrams per kilogram of body weight | significant improvement | significant improvement | averaged slightly better | reversing mild deficiency anemia
